Experimental data taken from PubChem BioAssay AID330 (DTP/NCI, 2004).
Values joined by “and” are separate entries in the source; they are usually repeats but may differ in a detail not shown here. Identical values can stand only once. Toxic doses and inconclusive results are not listed.

System: P388 leukemia ip, CD2F1 mice, survival T/C
Assay: NCI In Vivo Anticancer Drug Screen. Data for tumor model P388 Leukemia (intraperitoneal) in CD2F1 (CDF1) mice
Details: endpoint: median survival time, higher = longer survival
In short: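 Mice carrying the transplanted tumor received test compound or vehicle. Survival was recorded in each group, and the value is the treated-group measurement divided by that of the vehicle-treated control group.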

[1] = dose: 50.0 mg/kg/injection, schedule: Q01DX005 (ip), vehicle: Klucel (hydroxypropylcellulose) (HPC)
[2] = dose: 100.0 mg/kg/injection, schedule: Q01DX005 (ip), vehicle: Klucel (hydroxypropylcellulose) (HPC)
[3] = dose: 200.0 mg/kg/injection, schedule: Q01DX005 (ip), vehicle: Klucel (hydroxypropylcellulose) (HPC)
[4] = dose: 100.0 mg/kg/injection, schedule: Q04DX003 (ip), vehicle: saline with Tween-80

ClC1=C(Cl)C2(Cl)C3C(c4cc(Br)c(Br)cc4C4C3C3(Cl)C(Cl)=C(Cl)C4(Cl)C3(Cl)Cl)C1(Cl)C2(Cl)Cl (centres undefined)
T/C (dose: 50.0 mg/kg/injection, schedule: Q01DX009 (ip), vehicle: saline): 101 % of control
T/C (dose: 100.0 mg/kg/injection, schedule: Q01DX009 (ip), vehicle: saline): 106 % of control
T/C (dose: 200.0 mg/kg/injection, schedule: Q01DX009 (ip), vehicle: saline): 102 % of control

CC(=O)Nc1ccc(N=NNc2ccccc2)cc1
T/C (dose: 3.12 mg/kg/injection, schedule: Q01DX001 (ip), vehicle: Klucel (hydroxypropylcellulose) (HPC)): 100 % of control
T/C (dose: 6.25 mg/kg/injection, schedule: Q01DX001 (ip), vehicle: Klucel (hydroxypropylcellulose) (HPC)): 93 % of control
T/C (dose: 12.5 mg/kg/injection, schedule: Q01DX001 (ip), vehicle: Klucel (hydroxypropylcellulose) (HPC)): 99 % of control and 97 % of control

Cc1no[n+]([O-])c1C(N)=O
T/C (dose: 60.0 mg/kg/injection, schedule: Q01DX005 (ip), vehicle: saline with Tween-80): 101 % of control
T/C (dose: 120.0 mg/kg/injection, schedule: Q01DX005 (ip), vehicle: saline with Tween-80): 100 % of control
T/C (dose: 240.0 mg/kg/injection, schedule: Q01DX005 (ip), vehicle: saline with Tween-80): 102 % of control

c1ccc2c(c1)Nc1ccccc1O2
T/C (dose: 25.0 mg/kg/injection, schedule: Q01DX005 (ip), vehicle: Klucel (hydroxypropylcellulose) (HPC)): 98 % of control
T/C [1]: 91 % of control
T/C [2]: 100 % of control
T/C [3]: 99 % of control

CCCCCCC(=O)/C=C/c1cc(Cl)cc(Cl)c1
T/C (dose: 50.0 mg/kg/injection, schedule: Q01DX005 (ip), vehicle: saline with Tween-80): 95 % of control
T/C (dose: 100.0 mg/kg/injection, schedule: Q01DX005 (ip), vehicle: saline with Tween-80): 91 % of control
T/C (dose: 200.0 mg/kg/injection, schedule: Q01DX005 (ip), vehicle: saline with Tween-80): 92 % of control

COC(CCC1N=C1c1ccccc1)OC (centres undefined)
T/C (dose: 100.0 mg/kg/injection, schedule: Q04DX002 (ip), vehicle: saline with Tween-80): 105 % of control
T/C (dose: 200.0 mg/kg/injection, schedule: Q04DX002 (ip), vehicle: saline with Tween-80): 102 % of control
T/C (dose: 400.0 mg/kg/injection, schedule: Q04DX002 (ip), vehicle: saline with Tween-80): 102 % of control

CCOC(=O)/C=C/c1ccc2c(c1)OCO2
T/C [4]: 100 % of control
T/C (dose: 200.0 mg/kg/injection, schedule: Q04DX003 (ip), vehicle: saline with Tween-80): 90 % of control
T/C (dose: 400.0 mg/kg/injection, schedule: Q04DX003 (ip), vehicle: saline with Tween-80): 100 % of control

CC1(C)CC(=O)C(CC(=O)c2ccccc2)=C(NNc2ccncc2)C1
T/C (dose: 50.0 mg/kg/injection, schedule: Q01DX009 (ip), vehicle: Klucel (hydroxypropylcellulose) (HPC)): 94 % of control
T/C (dose: 100.0 mg/kg/injection, schedule: Q01DX009 (ip), vehicle: Klucel (hydroxypropylcellulose) (HPC)): 95 % of control
T/C (dose: 200.0 mg/kg/injection, schedule: Q01DX009 (ip), vehicle: Klucel (hydroxypropylcellulose) (HPC)): 91 % of control

Nc1nc(=S)c2[nH]cnc2[nH]1
T/C (dose: 0.25 mg/kg/injection, schedule: Q01DX009 (ip), vehicle: acid diluted with saline): 114 % of control
T/C (dose: 0.25 mg/kg/injection, schedule: Q01DX009 (ip), vehicle: alkali diluted with saline): 120 % of control
T/C (dose: 0.38 mg/kg/injection, schedule: Q01DX005 (ip), vehicle: alkali diluted with saline): 108 % of control
T/C (dose: 0.5 mg/kg/injection, schedule: Q01DX009 (ip), vehicle: acid diluted with saline): 106 % of control
T/C (dose: 0.5 mg/kg/injection, schedule: Q01DX009 (ip), vehicle: alkali diluted with saline): 119 % of control
T/C (dose: 0.75 mg/kg/injection, schedule: Q01DX005 (ip), vehicle: alkali diluted with saline): 115 % of control
T/C (dose: 1.0 mg/kg/injection, schedule: Q01DX009 (ip), vehicle: acid diluted with saline): 112 % of control
T/C (dose: 1.12 mg/kg/injection, schedule: Q04DX003 (ip), vehicle: acid diluted with saline): 109 % of control
T/C (dose: 1.44 mg/kg/injection, schedule: Q01DX009 (ip), vehicle: acid diluted with saline): 155 % of control
T/C (dose: 1.5 mg/kg/injection, schedule: Q01DX005 (ip), vehicle: alkali diluted with saline): 123 % of control
T/C (dose: 1.5 mg/kg/injection, schedule: Q01DX009 (ip), vehicle: acid diluted with saline): 154 % of control
T/C (dose: 1.5 mg/kg/injection, schedule: Q01DX009 (ip), vehicle: alkali diluted with saline): 151 % of control
T/C (dose: 2.0 mg/kg/injection, schedule: Q01DX005 (ip), vehicle: alkali diluted with saline): 157 % of control
T/C (dose: 2.0 mg/kg/injection, schedule: Q01DX009 (ip), vehicle: acid diluted with saline): 106 % of control
T/C (dose: 2.0 mg/kg/injection, schedule: Q04DX003 (ip), vehicle: alkali diluted with saline): 119 % of control
T/C (dose: 2.25 mg/kg/injection, schedule: Q04DX003 (ip), vehicle: acid diluted with saline): 119 % of control
T/C (dose: 2.4 mg/kg/injection, schedule: Q01DX009 (ip), vehicle: acid diluted with saline): 154 % of control and 170 % of control
T/C (dose: 2.5 mg/kg/injection, schedule: Q04DX003 (ip), vehicle: alkali diluted with saline): 116 % of control
T/C (dose: 3.24 mg/kg/injection, schedule: Q04DX003 (ip), vehicle: acid diluted with saline): 117 % of control
T/C (dose: 4.5 mg/kg/injection, schedule: Q01DX009 (ip), vehicle: saline): 122 % of control
T/C (dose: 4.5 mg/kg/injection, schedule: Q04DX003 (ip), vehicle: acid diluted with saline): 119 % of control
T/C (dose: 5.0 mg/kg/injection, schedule: Q04DX003 (ip), vehicle: alkali diluted with saline): 108 % of control
T/C (dose: 6.0 mg/kg/injection, schedule: Q01DX005 (ip), vehicle: alkali diluted with saline): 116 % of control
T/C (dose: 6.0 mg/kg/injection, schedule: Q01DX009 (ip), vehicle: acid diluted with saline): 105 % of control
T/C (dose: 12.0 mg/kg/injection, schedule: Q01DX005 (ip), vehicle: alkali diluted with saline): 113 % of control
T/C (dose: 20.0 mg/kg/injection, schedule: Q04DX003 (ip), vehicle: alkali diluted with saline): 120 % of control

COC(=O)[C@H]1O[C@H]1c1ccncc1
T/C [1]: 100 % of control and 104 % of control
T/C [2]: 103 % of control and 92 % of control
T/C [3]: 103 % of control and 94 % of control
T/C (dose: 400.0 mg/kg/injection, schedule: Q01DX005 (ip), vehicle: Klucel (hydroxypropylcellulose) (HPC)): 101 % of control and 92 % of control

N#CCc1[nH]nc2ncnc(N)c12
T/C (dose: 6.25 mg/kg/injection, schedule: Q01DX009 (ip), vehicle: other): 102 % of control
T/C (dose: 12.5 mg/kg/injection, schedule: Q01DX009 (ip), vehicle: other): 103 % of control
T/C (dose: 25.0 mg/kg/injection, schedule: Q01DX009 (ip), vehicle: other): 97 % of control
T/C (dose: 50.0 mg/kg/injection, schedule: Q01DX009 (ip), vehicle: other): 97 % of control
T/C (dose: 100.0 mg/kg/injection, schedule: Q01DX009 (ip), vehicle: other): 105 % of control

CCCN=C(N)c1ccc(NC(=O)c2ccc(C(=O)Nc3ccc(C(N)=NCCC)cc3)cc2)cc1
T/C (dose: 6.25 mg/kg/injection, schedule: Q04DX003 (ip), vehicle: saline with Tween-80): 154 % of control
T/C (dose: 12.5 mg/kg/injection, schedule: Q04DX003 (ip), vehicle: saline with Tween-80): 163 % of control
T/C (dose: 25.0 mg/kg/injection, schedule: Q01DX009 (ip), vehicle: saline with Tween-80): 122 % of control
T/C (dose: 25.0 mg/kg/injection, schedule: Q04DX003 (ip), vehicle: saline with Tween-80): 154 % of control
T/C (dose: 50.0 mg/kg/injection, schedule: Q01DX009 (ip), vehicle: saline with Tween-80): 90 % of control
T/C (dose: 50.0 mg/kg/injection, schedule: Q04DX003 (ip), vehicle: saline with Tween-80): 213 % of control
T/C [4]: 100 % of control

O=C1NC(c2ccccc2)N=C2Oc3ccccc3C=C12 (centres undefined)
T/C (dose: 3.12 mg/kg/injection, schedule: Q01DX009 (ip), vehicle: saline): 97 % of control
T/C (dose: 6.25 mg/kg/injection, schedule: Q01DX009 (ip), vehicle: saline): 97 % of control
T/C (dose: 12.5 mg/kg/injection, schedule: Q01DX009 (ip), vehicle: saline with Tween-80): 115 % of control
T/C (dose: 12.5 mg/kg/injection, schedule: Q01DX009 (ip), vehicle: saline): 106 % of control

O=c1[nH]c2cc([N+](=O)[O-])ccc2nc1/C=C(\O)c1ccco1
T/C (dose: 60.0 mg/kg/injection, schedule: Q01DX005 (ip), vehicle: Klucel + Tween-80): 100 % of control
T/C (dose: 120.0 mg/kg/injection, schedule: Q01DX005 (ip), vehicle: Klucel + Tween-80): 94 % of control
T/C (dose: 240.0 mg/kg/injection, schedule: Q01DX005 (ip), vehicle: Klucel + Tween-80): 94 % of control
